Results reported in patent US8877185B2, “Managing and treating keloids” (priority 2012, dated 2014).

System: keloid
Experiment: Irritation at the keloid site following application of capsaicin
Type: in vivo, human
Settings: topical, rubbed on the keloid; Capzasin HP 0.1% capsaicin
Description: In an embodiment, a method of treating or managing a keloid includes firstly removing flurandrenolide tape (or CORDRAN® (flurandrenolide) tape) by peeling it off the keloid and secondly, cleaning the keloid with water and soap, and then drying the keloid with a cloth or a paper towel. After the keloid is dried, graphites ointment is applied in a manner that includes completely or partially covering the keloid with the graphites ointment. Graphites 6C ointment is available in the open market, for example, sold on the interne by a number of companies such as Pomade, Nelson, Boiron, or SBL. […] In an aspect of the method of treatment, witch hazel ointment is applied to the keloid evenly on the keloid either separately or together with graphites. Witch hazel (Hamamelis virginiana) is available in the open market as a cream, lotion ointment or liquid. […] The Hamamelis ointment is allowed to be absorbed by the keloid. In an embodiment, capsaicin cream or ointment is applied to the keloid. Capsaicin, 8-Methyl-N-vanillyl-trans-6-nonenamide) (CH3)2CHCH═CH(CH2)4CONHCH2C6H3-4-(OH)-3—(OCH3)) is the active composition or mixture of chili peppers, which are plants belonging to the genus Capsicum. Capsaicin may be obtained over-the-counter as for example, Capzasin HP 0.1% capsaicin (brand name CHATTEM Registered Trade mark, by Chattem Inc., TN). […]

For COc1cc(CNC(=O)CCCC/C=C/C(C)C)ccc1O [Capsaicin, 8-Methyl-N-vanillyl-trans-6-nonenamide], the “Period of intense irritation or pain at the site of the keloid following application” value was “about 30 minutes”.
